Laboratory results as given in PubChem BioAssay (NCI).
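How tested: cells in 96-well plates exposed to compound for 48 hours at five concentrations. GI50 is the concentration that inhibits growth by half. TGI is the concentration that stops growth completely.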

Key:
Assay in all cases: DTP human tumour cell line panel, 48 h
[1] = system: M14 melanoma
[2] = system: DU-145 prostate
[3] = system: SF-295 CNS
[4] = system: ACHN renal
[5] = system: A498 renal
[6] = system: HCC-2998 colon
[7] = system: BT-549 breast
[8] = system: MDA-MB-231 breast
[9] = system: IGROV1 ovarian
[10] = system: SK-MEL-2 melanoma
[11] = system: U251 CNS
[12] = system: OVCAR-8 ovarian
[13] = system: SN12C renal
[14] = system: SNB-19 CNS
[15] = system: SK-MEL-28 melanoma
[16] = system: LOX IMVI melanoma
[17] = system: HOP-92 NSCLC
[18] = system: HCT-116 colon
[19] = system: CAKI-1 renal
[20] = system: RPMI-8226 leukemia
[21] = system: UACC-62 melanoma
[22] = system: SF-268 CNS
[23] = system: CCRF-CEM leukemia
[24] = system: COLO 205 colon
[25] = system: SR leukemia
[26] = system: K-562 leukemia
[27] = system: 786-0 renal
[28] = system: T-47D breast
[29] = system: SK-MEL-5 melanoma
[30] = system: RXF 393 renal
[31] = system: TK-10 renal
[32] = system: KM12 colon
[33] = system: UO-31 renal
[34] = system: EKVX NSCLC
[35] = system: NCI-H226 lung
[36] = system: MALME-3M melanoma
[37] = system: SNB-75 CNS
[38] = system: MOLT-4 leukemia
[39] = system: OVCAR-5 ovarian
[40] = system: SW-620 colon
[41] = system: SK-OV-3 ovarian
[42] = system: PC-3 prostate
[43] = system: HCT-15 colon
[44] = system: UACC-257 melanoma
[45] = system: HS 578T breast
[46] = system: HL-60(TB) leukemia
[47] = system: A549 NSCLC
[48] = system: HT29 colon
[49] = system: SF-539 CNS
[50] = system: OVCAR-4 ovarian
[51] = system: OVCAR-3 ovarian
[52] = system: MDA-MB-435
[53] = system: NCI/ADR-RES ovarian
[54] = system: MCF7 breast
[55] = system: NCI-H460 lung
[56] = system: HOP-62 NSCLC
[57] = system: NCI-H23 lung
[58] = system: NCI-H522 lung

## CCOC(=O)c1c(NCC(=O)Nc2ccc(Br)cc2)sc2c1CCCC2
[1]
  GI50: 1.9 µM
  TGI: 4.9 µM
[2]
  GI50: 1.68 µM
  TGI: 3.28 µM
[3]
  GI50: 3.95 µM
  TGI: 14.3 µM
[4]
  GI50: 1.74 µM
  TGI: 3.29 µM
[5]
  GI50: 1.85 µM
  TGI: 5.67 µM
[6]
  GI50: 1.82 µM
  TGI: 3.36 µM
[7]
  GI50: 1.45 µM
  TGI: 3.97 µM
[8]
  GI50: 2.08 µM
  TGI: 5.21 µM
[9]
  GI50: 2.13 µM
  TGI: 12.1 µM
[10]
  GI50: 1.84 µM
  TGI: 5.49 µM
[11]
  GI50: 1.51 µM
  TGI: 3.17 µM
[12]
  GI50: 4 µM
  TGI: > 100 µM
[13]
  GI50: 2.51 µM
  TGI: 7.16 µM
[14]
  GI50: 2.2 µM
  TGI: 6.31 µM
[15]
  GI50: 1.71 µM
  TGI: 3.49 µM
[16]
  GI50: 0.829 µM
  TGI: 2.81 µM
[17]
  GI50: 1.42 µM
  TGI: 3.84 µM
[18]
  GI50: 1.63 µM
  TGI: 3.81 µM
[19]
  GI50: 2.06 µM
  TGI: 7.46 µM
[20]
  GI50: 2.09 µM
  TGI: 5.32 µM
[21]
  GI50: 1.48 µM
  TGI: 3.16 µM
[22]
  GI50: 2.06 µM
  TGI: 8.24 µM
[23]
  GI50: 0.801 µM
  TGI: 6.72 µM
[24]
  GI50: 2.01 µM
  TGI: 4.52 µM
[25]
  GI50: 1.22 µM
  TGI: 5.33 µM
[26]
  GI50: 1.66 µM
  TGI: 7.09 µM
[27]
  GI50: 2.26 µM
  TGI: 6.04 µM
[28]
  GI50: 1.76 µM
  TGI: 4.61 µM
[29]
  GI50: 1.65 µM
  TGI: 3.08 µM
[30]
  GI50: 1.34 µM
  TGI: 2.76 µM
[31]
  GI50: 1.74 µM
  TGI: 3.46 µM
[32]
  GI50: 1.97 µM
  TGI: 4.1 µM
[33]
  GI50: 1.5 µM
  TGI: 3.3 µM
[34]
  GI50: 1.81 µM
  TGI: 4.91 µM
[35]
  GI50: 1.72 µM
  TGI: 6.48 µM
[36]
  GI50: 1.77 µM
  TGI: 3.81 µM
[37]
  GI50: 2.22 µM
  TGI: 14.3 µM
[38]
  GI50: 0.712 µM
  TGI: 4.66 µM
[39]
  GI50: 2.02 µM
  TGI: 3.77 µM
[40]
  GI50: 2.28 µM
  TGI: 6.1 µM
[41]
  GI50: 3.49 µM
  TGI: 10.9 µM
[42]
  GI50: 2.46 µM
  TGI: 9.71 µM
[43]
  GI50: 1.38 µM
  TGI: 3.47 µM
[44]
  GI50: 2.8 µM
  TGI: 8.2 µM
[45]
  GI50: 2.89 µM
  TGI: 32.3 µM
[46]
  GI50: 1.57 µM
  TGI: 4.37 µM
[47]
  GI50: 2.78 µM
  TGI: 8.46 µM
[48]
  GI50: 1.91 µM
  TGI: 3.98 µM
[49]
  GI50: 1.73 µM
  TGI: 3.18 µM
[50]
  GI50: 1.74 µM
  TGI: 4.77 µM
[51]
  GI50: 1.61 µM
  TGI: 3.12 µM
[52]
  GI50: 1.9 µM
  TGI: 5.58 µM
[53]
  GI50: 2.6 µM
  TGI: 8.51 µM
[54]
  GI50: 1.48 µM
  TGI: 3.51 µM
[55]
  GI50: 1.94 µM
  TGI: 4.31 µM
[56]
  GI50: 2.32 µM
  TGI: 5.71 µM
[57]
  GI50: 1.81 µM
  TGI: 4.6 µM

## C/C(=N\NC(=O)CSc1nc2sc3c(c2c(=O)n1-c1ccccc1)CCC(C)C3)c1ccc(Cl)cc1 (stereo unspecified)
[1]
  GI50: 2.34 µM
  TGI: 14.1 µM
[2]
  GI50: 3.63 µM
  TGI: > 100 µM
[3]
  GI50: 4.18 µM
  TGI: > 100 µM
[4]
  GI50: 1.7 µM
  TGI: > 100 µM
[5]
  GI50: > 100 µM
  TGI: > 100 µM
[6]
  GI50: 2.76 µM
  TGI: > 100 µM
[7]
  GI50: 3.6 µM
  TGI: 26.5 µM
[8]
  GI50: 4.67 µM
  TGI: > 100 µM
[9]
  GI50: 2.82 µM
  TGI: > 100 µM
[10]
  GI50: 2.31 µM
  TGI: 14.7 µM
[11]
  GI50: 1.98 µM
  TGI: > 100 µM
[12]
  GI50: 3.31 µM
  TGI: 84.7 µM
[13]
  GI50: 3.4 µM
  TGI: > 100 µM
[14]
  GI50: 4.89 µM
  TGI: > 100 µM
[15]
  GI50: 7.76 µM
  TGI: > 100 µM
[16]
  GI50: 0.348 µM
  TGI: 15.7 µM
[17]
  GI50: 1.33 µM
  TGI: 9.88 µM
[18]
  GI50: 0.578 µM
  TGI: > 100 µM
[19]
  GI50: 2.04 µM
  TGI: > 100 µM
[20]
  GI50: 2.83 µM
  TGI: > 100 µM
[21]
  GI50: 3.57 µM
  TGI: > 100 µM
[22]
  GI50: 3.73 µM
  TGI: > 100 µM
[23]
  GI50: 0.742 µM
  TGI: > 100 µM
[24]
  GI50: 2.94 µM
  TGI: 17.5 µM
[25]
  GI50: 0.735 µM
  TGI: > 100 µM
[26]
  GI50: 0.592 µM
  TGI: > 100 µM
[27]
  GI50: 0.366 µM
  TGI: 38.1 µM
[28]
  GI50: 3.55 µM
  TGI: 68 µM
[29]
  GI50: 4.8 µM
  TGI: 19.5 µM
[30]
  GI50: 1.53 µM
  TGI: 8.71 µM
[31]
  GI50: 4.64 µM
  TGI: > 100 µM
[32]
  GI50: 2.66 µM
  TGI: > 100 µM
[33]
  GI50: 2.11 µM
  TGI: 15.8 µM
[34]
  GI50: 5.08 µM
  TGI: > 100 µM
[35]
  GI50: 13 µM
  TGI: 52.7 µM
[36]
  GI50: 11.8 µM
  TGI: > 100 µM
[58]
  GI50: 3.39 µM
  TGI: 39.1 µM
[37]
  GI50: 2.55 µM
  TGI: 13.7 µM
[38]
  GI50: 0.575 µM
  TGI: > 100 µM
[39]
  GI50: 3.52 µM
  TGI: > 100 µM
[40]
  GI50: 3.26 µM
  TGI: > 100 µM
[41]
  GI50: 3.68 µM
  TGI: 36.5 µM
[42]
  GI50: 3.26 µM
  TGI: > 100 µM
[43]
  GI50: 0.387 µM
  TGI: 25.7 µM
[44]
  GI50: 16.1 µM
  TGI: 95.1 µM
[45]
  GI50: 8.85 µM
  TGI: > 100 µM
[46]
  GI50: 1.51 µM
  TGI: > 100 µM
[47]
  GI50: 2.57 µM
  TGI: > 100 µM
[48]
  GI50: 3.13 µM
  TGI: 13.3 µM
[49]
  GI50: 0.866 µM
  TGI: 4.02 µM
[50]
  GI50: 2.2 µM
  TGI: > 100 µM
[51]
  GI50: 3.33 µM
  TGI: > 100 µM
[52]
  GI50: 3.86 µM
  TGI: 66.1 µM
[53]
  GI50: 2.63 µM
  TGI: 12.6 µM
[54]
  GI50: 0.439 µM
  TGI: > 100 µM
[55]
  GI50: 1.16 µM
  TGI: > 100 µM
